Data taken from patent US4207318A, “Novel imidazobenzoxazines” (Roussel Uclaf, priority 1977, dated 1980).
Where two headings read alike, the source gives them in different places.

Tested on: Passive cutaneous anaphylaxis
Experiment: Passive cutaneous anaphylaxis (PCA) in rats
Format: in vivo
Conditions: Rattus norvegicus, read-out: ED50 (dose of drug giving 50% inhibition), dosed immediately prior to challenge, male rats, ovalbumen antigen
Protocol: Passive cutaneous anaphylaxis (PCA) in rats
The following compounds were tested for their physiological activity in the test: methyl 8-chloro-4H-imidazo-[2,1-c][1,4]-benzoxazine-2-carboxylate (compound A), methyl 8-methyl-4H-imidazo-[2,1-c][1,4]-benzoxazine-2-carboxylate (compound B), 8-chloro-4H-imidazo-[2,1-c][1,4]-benzoxazine-2-carboxylic acid (compound C), 7-methyl-4H-imidazo-[2,1-c][1,4]-benzoxazine-2-carboxylic acid (compound D), 8-chloro-7-methyl-4H-imidazo-[2,1-c][1,4]-benzoxazine-2-carboxylic acid (compound E), 6-methoxy-4H-imidazo-[2,1-c][1,4]-benzoxazine-2-carboxylic acid (compound F) and 8-methyl-4H-imidazo-[2,1-c][1,4]-benzoxazine-2-carboxylic acid (compound G).
Cutaneous anaphylaxis was induced in rats by intradermal (ID) sensitization with antiserum followed three days later by systemic challenge with antigen. Evans blue dye injected with the antigen is used as a marker to assess the severity of the local response. Anti-allergic drugs inhibit this reaction. This method has been described by OVARY (1962) "Passive Cutaneous Anaphylaxis in Allergology" Page 358-367 Ed. Brown: Pergamon Press. Animals: -male rats weighing 180-220 grams are used in groups of seven.
Preparation of Antigen for Sensitization (Alum precipitated ovalbumen)
1. Wash 120 grams of Al(OH)3 gel in 140 ml of saline (use of a macerater facilitates mixing).
2. Centrifuge at 3,000 rpm for about 10 minutes.
3. Resuspend the precipitate with 300 ml of albumen egg powder (1.3 mg/ml) in saline and allow to stand for 30 minutes.
4. Centrifuge at 3,000 rpm for 10 minutes.
5. Weigh the wet precipitate and to each gram weight add 1 ml of saline. Store in refrigerator (Quantity sufficient for 60 rats for a 3 day sensitization program).
Preparation of Antiserum (anti-ovalbumen)
1 ml of the alum precipitated ovalbumen was injected subcutaneously into rats weighing 180-200 grams on days 0,2,4. The rats were bled on day 14 either by cardiac puncture or via the dorsal abdominal aorta. Equal quantities of serum from each animal were pooled and thoroughly mixed and 2 ml aliquots were stored at -20° C. in plastic tubes.
The antiserum for sensitization was diluted so that an ID injection of 0.1 ml into control animals would give an average score of a single spot of between 2.0-3.5 using 5 point scoring system.
(A) SENSITIZATION: The rats were anaesthetized Nembutal (40-60 mg/kg i.p) and were then sensitized by four ID injections (0.1 ml each) on their shaved backs. The animals were then left for a period of three days to develop sensitization.
(B) […]: The sensitized rats were dosed orally or intraveneously with the drug immediately prior to intraveneous challenge via the superficial penile vein with 1 ml of an antigen/Evans blue mixture (1 mg albumen egg powder in 0.5 ml saline plus 0.5 ml of 1% Evans blue). The injections were speeded up by using an automatic 1 ml self-filling glass syringe. The "challenged" rats were killed after 30 minutes, (usually pithed) and their skin on the dorsal surface was removed. The degree and area of blueing, proportional to the anaphylactic reaction was assessed on a five point scoring system.
1. Total scores for sites 1,2,3 and 4=X
2. Mean value of X for each group=X
X c=X for control group [formula] 5.
ED50 values for the compounds tested in the passive cutaneous anaphylaxis screen (in rats) are as follows: […]

SMILES	ED50 (P.O. (oral)) [mg/kg]	ED50 (I.V. (intravenous)) [mg/kg]
COC(=O)c1cn2c(n1)COc1ccc(C)cc1-2 [B, methyl 8-methyl-4H-imidazo-[2,1-c][1,4]-benzoxazine-2-carboxylate]	1.46	–
COc1cccc2c1OCc1nc(C(=O)O)cn1-2 [F, 6-methoxy-4H-imidazo-[2,1-c][1,4]-benzoxazine-2-carboxylic acid]	–	3.27
O=C(O)c1cn2c(n1)COc1ccc(Cl)cc1-2 [C, 8-chloro-4H-imidazo-[2,1-c][1,4]-benzoxazine-2-carboxylic acid]	0.13	0.42
COC(=O)c1cn2c(n1)COc1ccc(Cl)cc1-2 [A, methyl 8-chloro-4H-imidazo-[2,1-c][1,4]-benzoxazine-2-carboxylate]	2.79	–
Cc1ccc2c(c1)-n1cc(C(=O)O)nc1CO2 [G, 8-methyl-4H-imidazo-[2,1-c][1,4]-benzoxazine-2-carboxylic acid]	0.37	0.35
Cc1ccc2c(c1)OCc1nc(C(=O)O)cn1-2 [D, 7-methyl-4H-imidazo-[2,1-c][1,4]-benzoxazine-2-carboxylic acid]	4	0.39
Cc1cc2c(cc1Cl)-n1cc(C(=O)O)nc1CO2 [E, 8-chloro-7-methyl-4H-imidazo-[2,1-c][1,4]-benzoxazine-2-carboxylic acid]	–	0.75
